From article PMC6273270, “Flavonoid Interaction with a Chitinase from Grape Berry Skin: Protein Identification and Modulation of the Enzymatic Activity” (Molecules, 2016) come the findings set out here.

This test relates to T1, chitinase from S. griseus.
T1 construct: gene chiC; commercial native preparation (Sigma Aldrich), low purity, antibody-reactive band about 23 kDa; authors ascribe it to family 19 chitinase C
In words: fluorimetric release of 4-methylumbelliferone, Michaelis-Menten fit. It is filed as biochemical, Streptomyces griseus. The note with it: McIlvain's buffer, pH 5.5, 37 °C, 1 h; no flavonoid (control of the quercetin series); apparent; commercial low-purity enzyme. An excerpt:
fluorimetric release of 4-methylumbelliferone, Michaelis-Menten fit on chitinase from S. griseus

For orientation: Km means the substrate concentration at which the rate is half of its maximum. Regarding `CC(=O)N[C@H]1[C@H](Oc2ccc3c(C)cc(=O)oc3c2)O[C@H](CO)[C@@H](O[C@@H]2O[C@H](CO)[C@@H](O[C@@H]3O[C@H](CO)[C@@H](O)[C@H](O)[C@H]3NC(C)=O)[C@H](O)[C@H]2NC(C)=O)[C@@H]1O` [4-methylumbelliferyl β-d-N,N′,N′-tri-acetyl-chitotrioside], the Michaelis constant (Km) worked out at 35.4 ± 4.18 µM.
